Source: patent US20250019377A1 (JACOBIO PHARMACEUTICALS CO., LTD, priority 2021, published 2025)
Several values for one entry are separate records, joined by “and”; a condition that tells them apart may be missing. Identical values can stand only once. Like-named read-outs stand apart in the source and are kept apart here.

How the values were obtained:
[1] = molecular target: T1, K-Ras G12V (Homo sapiens, UniProt P01116, G12V); assay: SOS1 catalyzed nucleotide exchange assay (GDP form K-Ras), K-Ras G12V; conditions: read-out: K-Ras G12V GDP Biochemical Activity (IC50)
[2] = system: p-ERK in SW620 cells (K-Ras G12V); assay: Phospho-ERK1/2(THR202/TYR204) HTRF assay, SW620; assay type: cell-based; conditions: Homo sapiens, SW-620, 2 h, 2 hours incubation
[3] = molecular target: T1, K-Ras G12V; assay: biochemical
[4] = molecular target: T2, K-Ras WT (Homo sapiens, UniProt P01116); assay: biochemical
[5] = system: SW620 cells (K-Ras G12V); assay: 2D cell growth inhibition assay, SW620; assay type: cell-based; conditions: Homo sapiens, SW-620, 144 h, 6 days, absolute IC50
[6] = molecular target: T3, K-Ras G13D (Homo sapiens, UniProt P01116, G13D); assay: biochemical
[7] = molecular target: T2, K-Ras WT; assay: SOS1 catalyzed nucleotide exchange assay (GDP form K-Ras), K-Ras WT; conditions: read-out: K-Ras WT GDP Biochemical Activity (IC50)
[8] = molecular target: T3, K-Ras G13D; assay: biochemical; remark: listed apart in the source
[9] = system: p-ERK in AGS cells (K-Ras G12D); assay: Phospho-ERK1/2(THR202/TYR204) HTRF assay, AGS; assay type: cell-based; conditions: Homo sapiens, 2 h, 2 hours incubation
[10] = system: AGS cells (K-Ras G12D); assay: 2D cell growth inhibition assay, AGS; assay type: cell-based; conditions: Homo sapiens, 144 h, 6 days, absolute IC50
[11] = system: NCI-H747 cells (K-Ras G13D)
[12] = system: p-ERK in NCI-H747 cells (K-Ras G13D)
[13] = system: AsPC-1 cells (K-Ras G12D); assay: 2D cell growth inhibition assay, AsPC-1; assay type: cell-based; conditions: Homo sapiens, ASPC1, 144 h, AsPC-1, K-Ras G12D, 6 days, absolute IC50
[14] = system: TCC-PAN2 cells (K-Ras G12R); assay: 3D cell growth inhibition assay, TCC-PAN2; assay type: cell-based; conditions: 144 h, 6 days, absolute IC50
[15] = system: MKN-1 cells (K-Ras WT); assay: 3D cell growth inhibition assay, MKN-1; assay type: cell-based; conditions: Homo sapiens, 144 h, MKN-1, K-Ras WT, 6 days, absolute IC50
[16] = system: Capan-2 cells (K-Ras G12V)
[17] = system: NCI-H460 cells (K-Ras Q61H); assay: 3D cell growth inhibition assay, NCI-H460; assay type: cell-based; conditions: Homo sapiens, 144 h, 6 days, absolute IC50
[18] = system: NCI-H358 cells (K-Ras G12C)
[19] = system: p-ERK in NCI-H358 cells (K-Ras G12C); assay: Phospho-ERK1/2(THR202/TYR204) HTRF assay, NCI-H358; assay type: cell-based; conditions: Homo sapiens, 2 hours incubation
[20] = system: p-ERK in NCI-H460 cells (K-Ras Q61H); assay: Phospho-ERK1/2(THR202/TYR204) HTRF assay, NCI-H460; assay type: cell-based; conditions: Homo sapiens, 2 hours incubation
[21] = system: p-ERK in TCC-PAN2 cells (K-Ras G12R); assay: Phospho-ERK1/2(THR202/TYR204) HTRF assay, TCC-PAN2; assay type: cell-based; conditions: 2 hours incubation
[22] = system: p-ERK in MKN-1 cells (K-Ras WT amplification); assay: Phospho-ERK1/2(THR202/TYR204) HTRF assay, MKN-1; assay type: cell-based; conditions: Homo sapiens; MKN-1, K-Ras WT, 2 hours incubation

T3 sequence (P01116 1-169 isoform P01116-2 G13D): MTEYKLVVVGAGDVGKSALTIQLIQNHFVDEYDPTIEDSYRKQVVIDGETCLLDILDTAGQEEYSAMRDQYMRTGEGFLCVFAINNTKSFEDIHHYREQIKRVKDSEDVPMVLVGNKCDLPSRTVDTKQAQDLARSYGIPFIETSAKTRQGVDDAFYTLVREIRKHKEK
T1 sequence (P01116 1-169 isoform P01116-2 G12V): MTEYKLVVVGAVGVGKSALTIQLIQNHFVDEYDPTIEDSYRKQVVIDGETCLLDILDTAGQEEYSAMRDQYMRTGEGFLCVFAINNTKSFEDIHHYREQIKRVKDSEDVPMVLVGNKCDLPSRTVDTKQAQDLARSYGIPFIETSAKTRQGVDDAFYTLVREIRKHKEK
T2 sequence (P01116 1-169 isoform P01116-2): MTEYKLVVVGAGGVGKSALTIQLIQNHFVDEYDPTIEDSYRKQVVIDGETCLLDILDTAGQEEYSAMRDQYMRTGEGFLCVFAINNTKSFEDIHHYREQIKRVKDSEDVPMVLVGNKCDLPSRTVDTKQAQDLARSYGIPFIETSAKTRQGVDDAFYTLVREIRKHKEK

| Compound | IC50 [1] | IC50 [2] | IC50 [3] | IC50 [4] | IC50 [5] | IC50 [6] | IC50 [7] | IC50 [8] | IC50 [9] | IC50 [10] | IC50 [13] | other results |
| --- | --- | --- | --- | --- | --- | --- | --- | --- | --- | --- | --- | --- |
| C#Cc1c(F)ccc2cc(O)cc(-c3ncc4c(N5CCOCC(C#N)C5)nc(OC[C@@]56CCCN5C[C@H](F)C6)nc4c3F)c12 (stereo partly drawn) [Compound 88] | 13.6 nM | – | 2850 nM | – | – | > 100 nM | 28.5 nM | – | – | – | – | – |
| C#Cc1c(F)ccc2cc(O)cc(-c3ncc4c(N5CCCOCC5)nc(OCC5CN(C(=O)C=C)CCN5C)nc4c3F)c12 (stereo not drawn) [Compound 98, 1-(3-(((7-(8-ethynyl-7-fluoro-3-hydroxy-naphthalen-1-yl)-8-fluoro-4-(1,4-oxazepan-4-yl)pyrido[4,3-d]pyrimidin-2-yl)oxy)methyl)-4-methylpiperazin-1-yl)prop-2-en-1-one] | 54.5 nM | – | 8190 nM | > 5000 nM | – | > 100 nM | 318 nM | > 200 nM | – | – | – | – |
| C#Cc1c(F)ccc2cc(O)cc(-c3ncc4c(N5CCCOCC5)nc(OCC5CC6CCN5CC6)nc4c3F)c12 (stereo not drawn) [Compound 99, 5-ethynyl-6-fluoro-4-(8-fluoro-4-(1,4-oxa-zepan-4-yl)-2-(quinuclidin-2-ylmethoxy)pyrido[4,3-d]pyrimidin-7-yl)naphthalen-2-ol] | 22.6 nM | – | 2910 nM | – | – | > 100 nM | 34.3 nM | > 100 nM | – | – | – | – |
| C#Cc1c(F)ccc2cc(O)cc(-c3c(C(F)(F)F)cc4c(N5CCCOCC5)nc(OC[C@@]56CCCN5C[C@H](F)C6)nc4c3F)c12 [Compound 37, 5-ethynyl-6-fluoro-4-(8-fluoro-2-(((2R,7aS)-2-fluorotetrahydro-1H-pyrrolizin-7a(5H)-yl)methoxy)-4-(1,4-oxazepan-4-yl)-6-(trifluoromethyl)quinazolin-7-yl)naphthalen-2-ol] | 6.71 nM | 92 nM | 147 nM | 228 nM | 330 nM | > 100 nM | 9.93 nM | – | 49.2 nM | 278 nM | 629 nM | – |
| C#Cc1c(F)ccc2cc(O)cc(-c3ncc4c(N5CCCOCC5)nc(OCC56CCCN5CCC6)nc4c3F)c12 [Compound 21, 5-ethynyl-6-fluoro-4-(8-fluoro-4-(1,4-oxazepan-4-yl)-2-((tetrahydro-1H-pyrrolizin-7a(5H)-yl)methoxy)pyrido[4,3-d]pyrimidin-7-yl)naphthalen-2-ol trifluoroacetic acid] | – | 135 nM | – | – | 61.4 nM | – | – | – | 10.2 nM | 51.9 nM | 1350 nM | IC50 [11]: 126 nM; IC50 [12]: 60.7 nM |
| C#Cc1c(Cl)ccc2cc(O)cc(-c3ncc4c(N5CCCOCC5)nc(OC[C@@]56CCCN5C[C@H](F)C6)nc4c3F)c12 [Compound 39, 6-chloro-5-ethynyl-4-(8-fluoro-2-(((2R,7aS)-2-fluorotetrahydro-1H-pyrrolizin-7a(5H)-yl)methoxy)-4-(1,4-oxazepan-4-yl)pyrido[4,3-d]pyrimidin-7-yl)naphthalen-2-ol trifluoroacetic acid] | – | 3.36 nM | – | – | 9.66 nM | – | – | – | – | 2.09 nM | 61.2 nM | IC50 [14]: 949 nM; IC50 [15]: 7.34 nM; IC50 [17]: 125 nM; IC50 [19]: 1.38 nM; IC50 [20]: 9.92 nM; IC50 [21]: 156 nM; IC50 [22]: 9.92 nM |

More lines, main results first:

| IC50 [1] | IC50 [2] | IC50 [3] | IC50 [4] | IC50 [5] | IC50 [6] | IC50 [7] | IC50 [8] | IC50 [9] | IC50 [10] | IC50 [13] | Compound | other results |
| --- | --- | --- | --- | --- | --- | --- | --- | --- | --- | --- | --- | --- |
| 19.9 nM and 4.42 nM | 51.6 nM | 2880 nM and 2030 nM | 680 nM | 182 nM | > 100 nM | 56 nM and 13.5 nM | > 200 nM | – | – | – | C#Cc1c(F)ccc2cc(O)cc(-c3ncc4c(N5CCC6CC5CO6)nc(OC[C@@]56CCCN5C[C@H](F)C6)nc4c3F)c12 (stereo partly drawn) [Compound 93] | – |
| 8.81 nM | 29.3 nM | 1630 nM | – | 139 nM | – | 12.7 nM | – | 53 nM | 203 nM | 538 nM | C#Cc1c(F)ccc2cc(O)cc(-c3ccc4c(N5CCCOCC5)nc(OCC5(CN6CCOCC6)CC5)nc4c3F)c12 [Compound 20, 5-ethynyl-6-fluoro-4-(8-fluoro-2-((1-(morpholinomethyl)cyclopropyl)methoxy)-4-(1,4-oxazepan-4-yl)quinazolin-7-yl)naphthalen-2-ol trifluoroacetic acid] | IC50 [11]: 339 nM; IC50 [12]: 28.2 nM |
| – | 6.18 nM | – | – | 19.4 nM | – | – | – | 2.66 nM | 9.17 nM | 88.2 nM | C#Cc1c(F)ccc2cc(O)cc(-c3nc(NC)c4c(N5CCCOCC5)nc(OC[C@@]56CCCN5C[C@H](F)C6)nc4c3F)c12 [Compound 53, 5-ethynyl-6-fluoro-4-(8-fluoro-2-(((2R,7aS)-2-fluorotetrahydro-1H-pyrrolizin-7a(5H)-yl)methoxy)-5-(methylamino)-4-(1,4-oxazepan-4-yl)pyrido[4,3-d]pyrimidin-7-yl)naphthalen-2-ol trifluoroacetic acid] | IC50 [14]: ≥ 1000 nM; IC50 [15]: 25.7 nM; IC50 [16]: 153 nM; IC50 [17]: 24 nM; IC50 [18]: 47.2 nM; IC50 [19]: 3.86 nM; IC50 [20]: 17.5 nM; IC50 [11]: 34 nM; IC50 [12]: 6.93 nM; IC50 [21]: 456 nM; IC50 [22]: 9.74 nM |
| 23.7 nM | – | 2070 nM | – | – | > 100 nM | 60.2 nM | > 200 nM | – | – | – | C#Cc1c(F)ccc2cc(O)cc(-c3ncc4c(N5CCCO[C@H](CC#N)C5)nc(OC[C@@]56CCCN5C[C@H](F)C6)nc4c3F)c12 (single isomer, unassigned) | – |
| 0.77 nM | 19.9 nM | 552 nM | 144 nM | 54.5 nM | > 100 nM | 2 nM | > 100 nM | 62.2 nM | 41.2 nM | 428 nM | C#Cc1c(F)ccc2cc(O)cc(-c3ncc4c(N5CCOC[C@H](OC)C5)nc(OC[C@@]56CCCN5C[C@H](F)C6)nc4c3F)c12 (single isomer, unassigned) [Compound 49B] | – |
| 18.6 nM | – | 2770 nM | – | – | > 100 nM | 65.9 nM | 114 nM | – | – | – | C#Cc1c(F)ccc2cc(O)cc(-c3ncc4c(N5CCCOCC5)nc(OCC5CNCCN5C)nc4c3F)c12 (stereo not drawn) [Compound 96, 5-ethynyl-6-fluoro-4-(8-fluoro-2-((1-methyl-piperazin-2-yl)methoxy)-4-(1,4-oxazepan-4-yl)pyrido[4,3-d]pyrimidin-7-yl)naph-thalen-2-ol] | – |
| 11 nM | 98.6 nM | 5620 nM | – | – | > 100 nM | 40.2 nM | 24.7 nM | – | – | – | C#Cc1c(F)ccc2cc(O)cc(-c3ncc4c(N5CCOC[C@@H](OC)C5)nc(OC[C@@]56CCCN5C[C@H](F)C6)nc4c3F)c12 (single isomer, unassigned) [Compound 49A] | – |
| 2.7 nM | 95.6 nM | 298 nM | 194 nM | 120 nM | – | 2.56 nM | 2.18 nM | 7.7 nM | 25.5 nM | 218 nM | C#Cc1c(F)ccc2cc(O)cc(-c3ncc4c(N5CCOCC(C)(F)C5)nc(OC[C@@]56CCCN5C[C@H](F)C6)nc4c3F)c12 (stereo partly drawn) [Compound 101, 5-ethynyl-6-fluoro-4-(8-fluoro-4-(6-fluoro-6-methyl-1,4-oxazepan-4-yl)-2-(((2R,7aS)-2-fluorotetrahydro-1H-pyrrolizin-7a(5H)-yl)methoxy)pyrido[4,3-d]pyrimidin-7-yl)naphthalen-2-ol] | – |
